Assay results reported in patent US11155597B2, “Relaxin1 derived peptides for use in immunotherapy” (Immatics Biotechnologies GmbH, priority 2015, dated 2021).

System: CD8+ T cells of healthy HLA-A*02+ donors
Experiment: In vitro immunogenicity: T-cell priming with aAPCs loaded with peptide/MHC and anti-CD28, pMHC multimer readout
Assay type: cell-based, human
Settings: for Wells positive [%]: HLA-A*02 restricted peptides, Table 6B
Excerpt: In order to obtain information regarding the immunogenicity of the TUMAPs of the present invention, the inventors performed investigations using an in vitro T-cell priming assay based on repeated stimulations of CD8+ T cells with artificial antigen presenting cells (aAPCs) loaded with peptide/MHC complexes and anti-CD28 antibody.
In order to perform in vitro stimulations by artificial antigen presenting cells loaded with peptide-MHC complex (pMHC) and anti-CD28 antibody, the inventors first isolated CD8+ T cells from fresh HLA-A*02 leukapheresis products via positive selection using CD8 microbeads (Miltenyi Biotec, Bergisch-Gladbach, Germany) of healthy donors obtained from the University clinics Mannheim, Germany, after informed consent. PBMCs and isolated CD8+ lymphocytes were incubated in T-cell medium (TCM) until use consisting of RPMI-Glutamax (Invitrogen, Karlsruhe, Germany) supplemented with 10% heat inactivated human AB serum (PAN-Biotech, Aidenbach, Germany), 100 U/ml Penicillin/100 μg/ml Streptomycin (Cambrex, Cologne, Germany), 1 mM sodium pyruvate (CC Pro, Oberdorla, Germany), 20 μg/ml Gentamycin (Cambrex). 2.5 ng/ml IL-7 (PromoCell, Heidelberg, Germany) and 10 U/ml IL-2 (Novartis Pharma, Nürnberg, Germany) were also added to the TCM at this step. Generation of pMHC/anti-CD28 coated beads, T-cell stimulations and readout was performed in a highly defined in vitro system using four different pMHC molecules per stimulation condition and 8 different pMHC molecules per readout condition.
The purified co-stimulatory mouse IgG2a anti human CD28 Ab 9.3 (Jung et al., 1987) was chemically biotinylated using Sulfo-N-hydroxysuccinimidobiotin as recommended by the manufacturer (Perbio, Bonn, Germany). Beads used were 5.6 μm diameter streptavidin coated polystyrene particles (Bangs Laboratories, Illinois, USA).
pMHC used for positive and negative control stimulations were A*0201/MLA-001 (peptide […] (SEQ ID NO. 289) from modified Melan-A/MART-1) and A*0201/DDX5-001 ([…] from DDX5, SEQ ID NO. 290), respectively.
800.000 beads/200 μl were coated in 96-well plates in the presence of 4×12.5 ng different biotin-pMHC, washed and 600 ng biotin anti-CD28 were added subsequently in a volume of 200 μl. Stimulations were initiated in 96-well plates by co-incubating 1×10^6 CD8+ T cells with 2×10^5 washed coated beads in 200 μl TCM supplemented with 5 ng/ml IL-12 (PromoCell) for 3 days at 37° C. Half of the medium was then exchanged by fresh TCM supplemented with 80 U/ml IL-2 and incubating was continued for 4 days at 37° C. This stimulation cycle was performed for a total of three times. For the pMHC multimer readout using 8 different pMHC molecules per condition, a two-dimensional combinatorial coding approach was used as previously described (Andersen et al., 2012) with minor modifications encompassing coupling to 5 different fluorochromes. Finally, multimeric analyses were performed by staining the cells with Live/dead near IR dye (Invitrogen, Karlsruhe, Germany), CD8-FITC antibody clone SK1 (BD, Heidelberg, Germany) and fluorescent pMHC multimers. For analysis, a BD LSRII SORP cytometer equipped with appropriate lasers and filters was used. Peptide specific cells were calculated as percentage of total CD8+ cells. Evaluation of multimeric analysis was done using the FlowJo software (Tree Star, Oregon, USA). In vitro priming of specific multimer+CD8+ lymphocytes was detected by comparing to negative control stimulations.
Exemplary flow cytometry results after TUMAP-specific multimer staining for peptide of the invention are shown in FIG. 3 together with corresponding negative controls.

| Substance | Wells positive [%] | also measured |
| --- | --- | --- |
| 4 (VLFGELPAL; listed as Homo sapiens) [compound 4] | + (<20% = +) | – |
| 9 (SLITGQDLLSV; listed as Homo sapiens) [compound 9] | + (<20% = +) | – |
| 14 (YTFSGDVQL; listed as Homo sapiens) [compound 14] | + (<20% = +) | – |
| 17 (GLLPSAESIKL; listed as Homo sapiens) [compound 17] | + (<20% = +) | – |
| 27 (GLLGKVTSV; listed as Homo sapiens) [compound 27] | + (<20% = +) | – |
| 29 (KMISAIPTL; listed as Homo sapiens) [compound 29] | + (<20% = +) | – |
| 35 (VIIKGLEEI; listed as Homo sapiens) [compound 35] | + (<20% = +) | – |
| 50 (ILLSVLHQL; listed as Homo sapiens) [compound 50] | + (<20% = +) | – |
| 66 (AMFPDTIPRV; listed as Homo sapiens) [compound 66] | + (<20% = +) | – |
| 77 (ALYGNVQQV; listed as Homo sapiens) [compound 77] | + (<20% = +) | – |
| 89 (SLAETIFIV; listed as Homo sapiens) [compound 89] | + (<20% = +) | – |
| 97 (KLFEKSTGL; listed as Homo sapiens) [compound 97] | + (<20% = +) | – |
| 101 (SLLEVNEASSV; listed as Homo sapiens) [compound 101] | + (<20% = +) | – |
| 102 (GLYPVTLVGV; listed as Homo sapiens) [compound 102] | + (<20% = +) | – |
| 121 (ALYVQAPTV; listed as Homo sapiens) [compound 121] | + (<20% = +) | – |
| 157 (ILQDGQFLV; listed as Homo sapiens) [compound 157] | + (<20% = +) | – |
| 233 (SLFESLEYL; listed as Homo sapiens) [compound 233] | + (<20% = +) | – |
| 236 (KMSELQTYV; listed as Homo sapiens) [compound 236] | + (<20% = +) | – |
| 242 (KLQEEIPVL; listed as Homo sapiens) [compound 242] | + (<20% = +) | – |
| 246 (ALAGIVTNV; listed as Homo sapiens) [compound 246] | + (<20% = +) | – |
| 254 (ALGDKFLLRV; listed as Homo sapiens) [compound 254] | + (<20% = +) | – |
| 255 (FLMKNSDLYGA; listed as Homo sapiens) [compound 255] | + (<20% = +) | – |
| 257 (KLIDHQGLYL; listed as Homo sapiens) [compound 257] | + (<20% = +) | – |
| 260 (ALNESLVEC; listed as Homo sapiens) [compound 260] | + (<20% = +) | – |
| 263 (SIIEYLPTL; listed as Homo sapiens) [compound 263] | + (<20% = +) | – |
| 264 (TLHDQVHLL; listed as Homo sapiens) [compound 264] | + (<20% = +) | – |
| 267 (YLLDMPLWYL; listed as Homo sapiens) [compound 267] | + (<20% = +) | – |
| 287 (KIQEILTQV; listed as Homo sapiens) [compound 287] | – | in vitro immunogenicity: wells (percentage of positive wells, Table 6A): + (<20% = +) |
| 288 (SLYKGLLSV; listed as Homo sapiens) [compound 288] | – | in vitro immunogenicity: donors (percentage of positive donors, Table 6A): ++++ (> = 70% = ++++) |
